The test system of experiment [1] is HepG2 cells. The experiment is described as follows: MTT cytotoxicity assay. The following applies: for IC20 / IC50 / IC80: Homo sapiens, mean ± SEM (n = 9). The experiment is classed as cell-based, human. The procedure: MTT assay was performed as described by Pérez-Jiménez et al.. Briefly, samples containing 200 µL cell suspension (1 × 10^4 cells/well) were cultured in 96 well plates, in triplicate of three populations of the both cell lines. Subsequent to adherence of the cells within 12 h of incubation, Uvaol was added to the wells at a concentration between 0–140 μg/mL and maintained during 24, 48 and 72 h. MTT was dissolved in the medium and added to the wells at a final concentration of 0.5 mg/mL. Following 2 h of incubation, the generated formazan was dissolved in DMSO. Absorbance was measured at 570 nm in a multiplate reader (Bio-tek®, Winooski, VT, USA). The concentrations that caused 20%, 50% and 80% of inhibition of cell viability (IC20, IC50 and IC80) were calculated following the formula: % […] = (A0 − AT)/A0·100, where A0 is the control absorbance (100% of cell viability) and AT is de absorbance of the incubated cells with the different concentrations of uvaol. OriginPro 8 (OriginLab Corporation, Northampton, MA, USA) was used to performance a dose-response analysis by the following formula: y=A1+ A2− A1/1+10^(Log x0−x)p
In which Logx0 is the center of the curve, p the slope, A1 the lower asymptote and A2 the upper asymptote in the adjustment model described.
In general terms: Tetrazolium assays rely on reduction of a dye to a coloured formazan, in cell work by metabolically active cells.

The test system of experiment [2] is MDA-MB-231 (triple negative breast cancer). More on the design: method as in PMID 21142067. The following applies: MDA-MB-231, 10 and 100 µM; cited from earlier work.
Experiment [3] relates to WRL68 cells. Description: Muse Oxidative Stress kit, ROS production. Format: cell-based, human. The following applies: WRL68, IC50, 24 h. The procedure: (§1) A total of 1.5 × 10^5 cells were seeded per well in 24-well plates for each cell line (quadruplicates for three different populations of each cell line). […] Negative control populations were incubated only with the appropriate culture medium. The samples were analyzed in the Muse^TM Cell Analyzer (Merck-Millipore®, Burlington, MA, USA). The method is based on the use of dihydroetide (DHE), a reagent capable of crossing the cell membrane and interacting with superoxide anions, a type of ROS. In this process, DHE oxidizes and forms the DNA intercalating agent ethidium bromide, detectable by its fluorescence emission. […] The Muse^TM Oxidative Stress kit purchased from Millipore (Billerica, MA, USA) was used for this purpose.

Experiment [4] relates to HepG2 cells. Description: Muse Oxidative Stress kit, ROS production. The following applies: HepG2, IC50, 24 h. The experiment is classed as cell-based, human. The procedure: as §1
In experiment [5] the test system is WRL68 cells. The experiment is described as follows: Muse Annexin V & Dead Cell apoptosis assay. Format: cell-based, human. The following applies: WRL68, uvaol IC50, 24 h. The protocol: (§2) A total of 1.5 × 10^5 cells were seeded per well in 24-well plates for each cell line (quadruplicates for three different populations of each cell line). […] Negative control populations were incubated only with the appropriate culture medium. The samples were analyzed in the Muse^TM Cell Analyzer (Merck-Millipore®, Burlington, MA, USA). Phosphatidylserine (PS) is a phospholipid that is usually found in the inner half of the cytoplasmic membrane, but is outsourced when loss of integrity occurs in the apoptosis process. The method is based on the recognition and binding to the PS exposed by annexin V protein, labeled with a fluorescent substance to detect the interaction and quantify it. We used the Muse^TM Annexin V & Dead Cell kit purchased from Millipore (Billerica, MA, USA), which provides the percentage of viable cells, apoptotic and affected by necrosis.

Experiment [6] relates to HepG2 cells. Description: Muse Annexin V & Dead Cell apoptosis assay. The experiment is classed as cell-based, human. The following applies: HepG2, uvaol IC50, 24 h. The procedure:
as §2

The next experiment concerns MCF-7 line. More on the design: method as in PMID 21142067. The following applies: MCF-7, 44.27 μg/mL, same phase = G0/G1; cited from earlier work.

Values after ≈ are worked out from the molar mass of the structure shown.

For orientation: IC20 means the point of the concentration-response curve where the effect stands at 20%. Broadly, the IC50 is the point on the concentration scale where inhibition reaches its midpoint. A high value points to lower potency. For orientation: IC80 means the point of the concentration-response curve where the effect stands at 80%.

Take `C[C@H]1[C@H](C)CC[C@]2(CO)CC[C@]3(C)C(=CC[C@@H]4[C@@]5(C)CC[C@H](O)C(C)(C)[C@@H]5CC[C@]43C)[C@H]12` [uvaol, urs-12-ene-3,28-diol]: the “IC50 in control cells (WRL68) relative to tumor cells (HepG2)” value in the experiment with HepG2 cells [1] (24 h IC50 WRL68 vs HepG2) is given as “more than twice”. In the experiment on HepG2 cells [1] (HepG2, 24 h exposure), this compound displayed an IC20 of 8.2 ± 1.8 µg/mL (≈ 18.5 µM) and an IC50 of 25.2 µg/mL (≈ 56.9 µM). Moreover, in the experiment with HepG2 cells [1] (HepG2, 48 h exposure), the IC20 stood at 6.4 ± 0.4 µg/mL (≈ 14.5 µM), the IC50 stood at 20 ± 0.3 µg/mL (≈ 45.2 µM) and the IC80 amounted to 61.7 ± 5.3 µg/mL (≈ 139 µM). In addition, in the experiment with HepG2 cells [1] (HepG2, 72 h exposure), the IC20 was found to be 4 ± 0.2 µg/mL (≈ 9.03 µM), the IC50 amounted to 14.1 ± 1 µg/mL (≈ 31.8 µM) and the 80% effect level (IC80) was put at 39.2 ± 2.4 µg/mL (≈ 88.5 µM). For the same compound, the induction of apoptosis entry in experiment [2] was “did not show this effect”. Moreover, the “change in ROS levels vs control” value in the experiment on WRL68 cells [3] is reported as “without significant differences”. Further, the “change in percentage of cells expressing ROS vs control” value in the experiment with HepG2 cells [4] is “significant decrease”. Further, in the experiment on WRL68 cells [5], the “change in number of apoptotic and necrotic cells vs control” value is “equally significant increase”; the “change in number of viable cells vs control” value was “significant decrease”. For the same compound, in the experiment with HepG2 cells [6], the “change in percentage of viable cells vs control” value is on record as “significant reduction” and the “change in proportion of apoptotic cells vs control” value is on record as “increasing the proportion of apoptotic cells”. Also, in the experiment on MCF-7 line, the cell cycle arrest entry was “arrest in the same phase of the cycle”.
